Measured values taken from PMC5064235, “Structure-Based Design of Novel Tetrahydro-Beta-Carboline Derivatives with a Hydrophilic Side Chain as Potential Phosphodiesterase Inhibitors” (Scientia Pharmaceutica, 2015).
Blank lines part the entries; values can stand above or below the compound they belong to.

Key:
recombinant human PDE5 = biological target: T1, recombinant human PDE5 (Homo sapiens, UniProt O76074); test: In vitro PDE5 inhibitory activity (IMAP FP phosphodiesterase assay); assay type: biochemical; settings: purified PDE5, 50 nM TAMRA-cGMP, 1.5 h at 30 °C; 10 concentrations, at least two replicates; read-out: PDE5 Inhibition IC50
T1 construct: purchased BPS Biosciences, San Diego, CA, USA
Protocol: Phosphodiesterase Assay: 5 U/mL of purified PDE5 (BPS Biosciences, San Diego, CA, USA) was added to the wells of black 96-well non-binding plates. Immediately, the protein was treated with the compound or vehicle control and 50 nM TAMRA-cGMP and 50 nM Fluourescein-cAMP (Molecular Devices, Sunnyvale, CA, USA) were added to each assay well. The plates were incubated for 1.5 h at 30 °C. After incubation, the IMAP FP Phosphodiesterase Evaluation Assay (Molecular Devices, Sunnyvale, CA, USA) binding reagent was added to each well and the plates were incubated for an additional 30 min at 30 °C. FP was measured according to manufacturer’s specifications using a Biotech Synergy 4 plate reader. PDE activity was expressed by an IC50 value (50% inhibitory concentration). Data analysis was done through dose-response analysis, which was repeated at least twice to confirm the reproducibility of the IC50 values.
All the synthesized final THβC compounds were tested for their ability to inhibit recombinant human PDE5. Most of the compounds were evaluated in two steps. The first step was the determination of the percentage inhibition at a screening dose of 10 μM performed in triplicate. For compounds displaying a percentage of inhibition >50%, the IC50 was then determined by testing a range of 10 concentrations with at least two replicates per concentration (Table 2).

SMILES: O=C1[C@H]2Cc3c([nH]c4ccccc34)[C@@H](c3ccc(Cl)cc3)N2C(=O)CN1CCO [Compound 6a, (6R,12aR)6-(4-Chloro-phenyl)-2-(2-hydroxy-ethyl)-2,3,6,7,12,12a-hexahydro-pyrazino[1’,2’:1,6]pyrido[3,4-b]indole-1,4-dione]
- melting point: 230 to 233 °C
- IC50 (recombinant human PDE5): > 10 µM

SMILES: NCCN1CC(=O)N2[C@H](c3ccc(Cl)cc3)c3[nH]c4ccccc4c3C[C@@H]2C1=O [Compound 6b, (6R,12aR)-2-(2-Amino-ethyl)-6-(4-chloro-phenyl)-2,3,6,7,12,12a-hexahydro-pyrazino[1’,2’:1,6]pyrido[3,4-b]indole-1,4-dione]
- melting point: 231 to 234 °C
- IC50 (recombinant human PDE5): 3.6 µM

SMILES: O=C1[C@H]2Cc3c([nH]c4ccccc34)[C@@H](c3ccc(Cl)cc3)N2C(=O)CN1CCCCO [Compound 6c, (6R,12aR)-6-(4-Chloro-phenyl)-2-(4-hydroxy-butyl)-2,3,6,7,12,12a-hexahydropyrazino[1’,2’:1,6]pyrido[3,4-b]indole-1,4-dione]
- melting point: 228 to 230 °C
- IC50 (recombinant human PDE5): 0.12 µM

SMILES: NCCCCN1CC(=O)N2[C@H](c3ccc(Cl)cc3)c3[nH]c4ccccc4c3C[C@@H]2C1=O [Compound 6d, (6R,12R)-2-(4-Amino-butyl)-6-(4-chloro-phenyl)-2,3,6,7,12,12a-hexahydro-pyrazino[1’,2’:1,6]pyrido[3,4-b]indole-1,4-dione]
- IC50 (recombinant human PDE5): > 10 µM

SMILES: O=C1[C@H]2Cc3c([nH]c4ccccc34)[C@H](c3ccc(Cl)cc3)N2C(=O)CN1CCO [Compound 6e, (6S,12aR)-6-(4-Chloro-phenyl)-2-(2-hydroxy-ethyl)-2,3,6,7,12,12a-hexahydro-pyrazino[1’,2’:1,6]pyrido[3,4-b]indole-1,4-dione]
- melting point: 202 to 206 °C
- IC50 (recombinant human PDE5): 4.7 µM

SMILES: NCCN1CC(=O)N2[C@@H](c3ccc(Cl)cc3)c3[nH]c4ccccc4c3C[C@@H]2C1=O [Compound 6f, (6S,12aR)-2-(2-Amino-ethyl)-6-(4-chloro-phenyl)-2,3,6,7,12,12a-hexahydro-pyrazino[1’,2’:1,6]pyrido[3,4-b]indole-1,4-dione]
- melting point: 200 to 204 °C
- IC50 (recombinant human PDE5): > 10 µM

SMILES: O=C1[C@H]2Cc3c([nH]c4ccccc34)[C@H](c3ccc(Cl)cc3)N2C(=O)CN1CCCCO [Compound 6g, (6S,12aR)-6-(4-Chloro-phenyl)-2-(4-hydroxy-butyl)-2,3,6,7,12,12a-hexahydropyrazino[1’,2’:1,6]pyrido[3,4-b]indole-1,4-dione]
- melting point: 200 to 203 °C
- IC50 (recombinant human PDE5): > 10 µM

SMILES: NCCCCN1CC(=O)N2[C@@H](c3ccc(Cl)cc3)c3[nH]c4ccccc4c3C[C@@H]2C1=O [Compound 6h, (6S,12R)-2-(4-Amino-butyl)-6-(4-chloro-phenyl)-2,3,6,7,12,12a-hexahydro-pyrazino[1’,2’:1,6]pyrido[3,4-b]indole-1,4-dione]
- melting point: 200 to 202 °C
- IC50 (recombinant human PDE5): 3.1 µM

SMILES: O=C1[C@@H]2Cc3c([nH]c4ccccc34)[C@H](c3ccc(Cl)cc3)N2C(=O)CN1CCO [Compound 6i, (6S,12aS)-6-(4-Chloro-phenyl)-2-(2-hydroxy-ethyl)-2,3,6,7,12,12a-hexahydro-pyrazino[1’,2’:1,6]pyrido[3,4-b]indole-1,4-dione]
- melting point: 231 to 233 °C
- IC50 (recombinant human PDE5): > 10 µM

SMILES: NCCCCN1CC(=O)N2[C@@H](c3ccc(Cl)cc3)c3[nH]c4ccccc4c3C[C@H]2C1=O [Compound 6l, (6S,12S)-2-(4-Amino-butyl)-6-(4-chloro-phenyl)-2,3,6,7,12,12a-hexahydro-pyrazino[1’,2’:1,6]pyrido[3,4-b]indole-1,4-dione]
- IC50 (recombinant human PDE5): > 10 µM

SMILES: NCCCCN1CC(=O)N2[C@H](c3ccc(Cl)cc3)c3[nH]c4ccccc4c3C[C@H]2C1=O [Compound 6p, (6R,12S)-2-(4-Amino-butyl)-6-(4-chloro-phenyl)-2,3,6,7,12,12a-hexahydro-pyrazino[1’,2’:1,6]pyrido[3,4-b]indole-1,4-dione]
- IC50 (recombinant human PDE5): > 10 µM

The remaining lines, values ahead:

- IC50 (recombinant human PDE5): 0.84 µM
SMILES: O=C1[C@H]2Cc3c([nH]c4ccccc34)[C@@H](c3ccc(Br)cc3)N2C(=O)CN1CCO [Compound 7a, (6R,12R)-6-(4-Bromo-phenyl)-2-(2-hydroxy-ethyl)-2,3,6,7,12,12a-hexahydro-pyrazino[1’,2’:1,6]pyrido[3,4-b]indole-1,4-dione]

- IC50 (recombinant human PDE5): 2.4 µM
SMILES: NCCN1CC(=O)N2[C@H](c3ccc(Br)cc3)c3[nH]c4ccccc4c3C[C@@H]2C1=O [Compound 7b, (6R,12R)-2-(2-Amino-ethyl)-6-(4-bromo-phenyl)-2,3,6,7,12,12a-hexahydro-pyrazino[1’,2’:1,6]pyrido[3,4-b]indole-1,4-dione]

- IC50 (recombinant human PDE5): 0.1 µM
SMILES: O=C1[C@H]2Cc3c([nH]c4ccccc34)[C@@H](c3ccc(Br)cc3)N2C(=O)CN1CCCCO [Compound 7c, (6R,12R)-6-(4-Bromo-phenyl)-2-(4-hydroxy-butyl)-2,3,6,7,12,12a-hexahydropyrazino[1’,2’:1,6]pyrido[3,4-b]indole-1,4-dione]

- IC50 (recombinant human PDE5): 2.7 µM
SMILES: NCCCCN1CC(=O)N2[C@H](c3ccc(Br)cc3)c3[nH]c4ccccc4c3C[C@@H]2C1=O [Compound 7d, (6R,12R)-2-(4-Amino-butyl)-6-(4-bromo-phenyl)-2,3,6,7,12,12a-hexahydro-pyrazino[1’,2’:1,6]pyrido[3,4-b]indole-1,4-dione]

- IC50 (recombinant human PDE5): > 10 µM
SMILES: O=C1[C@H]2Cc3c([nH]c4ccccc34)[C@H](c3ccc(Br)cc3)N2C(=O)CN1CCO [Compound 7e, (6S,12R)-6-(4-Bromo-phenyl)-2-(2-hydroxy-ethyl)-2,3,6,7,12,12a-hexahydro-pyrazino[1’,2’:1,6]pyrido[3,4-b]indole-1,4-dione]

- IC50 (recombinant human PDE5): > 10 µM
SMILES: NCCN1CC(=O)N2[C@@H](c3ccc(Br)cc3)c3[nH]c4ccccc4c3C[C@@H]2C1=O [Compound 7f, (6S,12R)-2-(2-Amino-ethyl)-6-(4-bromo-phenyl)-2,3,6,7,12,12a-hexahydro-pyrazino[1’,2’:1,6]pyrido[3,4-b]indole-1,4-dione]

- IC50 (recombinant human PDE5): > 10 µM
SMILES: O=C1[C@H]2Cc3c([nH]c4ccccc34)[C@H](c3ccc(Br)cc3)N2C(=O)CN1CCCCO [Compound 7g, (6S,12R)-6-(4-Bromo-phenyl)-2-(4-hydroxy-butyl)-2,3,6,7,12,12a-hexahydropyrazino[1’,2’:1,6]pyrido[3,4-b]indole-1,4-dione]

- IC50 (recombinant human PDE5): 3.2 µM
SMILES: NCCCCN1CC(=O)N2[C@@H](c3ccc(Br)cc3)c3[nH]c4ccccc4c3C[C@@H]2C1=O [Compound 7h, (6S,12R)-2-(4-Amino-butyl)-6-(4-bromo-phenyl)-2,3,6,7,12,12a-hexahydro-pyrazino[1’,2’:1,6]pyrido[3,4-b]indole-1,4-dione]

- IC50 (recombinant human PDE5): > 10 µM
SMILES: O=C1[C@@H]2Cc3c([nH]c4ccccc34)[C@H](c3ccc(Br)cc3)N2C(=O)CN1CCO [Compound 7i, (6S,12S)-6-(4-Bromo-phenyl)-2-(2-hydroxy-ethyl)-2,3,6,7,12,12a-hexahydro-pyrazino[1’,2’:1,6]pyrido[3,4-b]indole-1,4-dione]

- IC50 (recombinant human PDE5): > 10 µM
SMILES: NCCN1CC(=O)N2[C@@H](c3ccc(Br)cc3)c3[nH]c4ccccc4c3C[C@H]2C1=O [Compound 7j, (6S,12S)-2-(2-Amino-ethyl)-6-(4-bromo-phenyl)-2,3,6,7,12,12a-hexahydro-pyrazino[1’,2’:1,6]pyrido[3,4-b]indole-1,4-dione]

- IC50 (recombinant human PDE5): > 10 µM
SMILES: O=C1[C@@H]2Cc3c([nH]c4ccccc34)[C@H](c3ccc(Br)cc3)N2C(=O)CN1CCCCO [Compound 7k, (6S,12S)-6-(4-Bromo-phenyl)-2-(4-hydroxy-butyl)-2,3,6,7,12,12a-hexahydropyrazino[1’,2’:1,6]pyrido[3,4-b]indole-1,4-dione]

- IC50 (recombinant human PDE5): > 10 µM
SMILES: NCCCCN1CC(=O)N2[C@@H](c3ccc(Br)cc3)c3[nH]c4ccccc4c3C[C@H]2C1=O [Compound 7l, (6S,12S)-2-(4-Amino-butyl)-6-(4-bromo-phenyl)-2,3,6,7,12,12a-hexahydro-pyrazino[1’,2’:1,6]pyrido[3,4-b]indole-1,4-dione]

- IC50 (recombinant human PDE5): 0.6 µM
SMILES: O=C1[C@@H]2Cc3c([nH]c4ccccc34)[C@@H](c3ccc(Br)cc3)N2C(=O)CN1CCO [Compound 7m, (6R,12S)-6-(4-Bromo-phenyl)-2-(2-hydroxy-ethyl)-2,3,6,7,12,12a-hexahydro-pyrazino[1’,2’:1,6]pyrido[3,4-b]indole-1,4-dione]

- IC50 (recombinant human PDE5): 0.9 µM
SMILES: NCCN1CC(=O)N2[C@H](c3ccc(Br)cc3)c3[nH]c4ccccc4c3C[C@H]2C1=O [Compound 7n, (6R,12S)-2-(2-Amino-ethyl)-6-(4-bromo-phenyl)-2,3,6,7,12,12a-hexahydro-pyrazino[1’,2’:1,6]pyrido[3,4-b]indole-1,4-dione]

- IC50 (recombinant human PDE5): 0.82 µM
SMILES: O=C1[C@@H]2Cc3c([nH]c4ccccc34)[C@@H](c3ccc(Br)cc3)N2C(=O)CN1CCCCO [Compound 7o, (6R,12S)-6-(4-Bromo-phenyl)-2-(4-hydroxy-butyl)-2,3,6,7,12,12a-hexahydropyrazino[1’,2’:1,6]pyrido[3,4-b]indole-1,4-dione]

- IC50 (recombinant human PDE5): 3.5 µM
SMILES: NCCCCN1CC(=O)N2[C@H](c3ccc(Br)cc3)c3[nH]c4ccccc4c3C[C@H]2C1=O [Compound 7p, (6R,12S)-2-(4-Amino-butyl)-6-(4-bromo-phenyl)-2,3,6,7,12,12a-hexahydro-pyrazino[1’,2’:1,6]pyrido[3,4-b]indole-1,4-dione]
